The record followed here is patent US11236129B2, “IL-17A binding peptides and medical uses thereof” (Dompe' Farmaceutici S.P.A., priority 2018, dated 2022).

Residues, ends and D or L forms follow the SMILES beside them.

In the experiment the target is IL-17RA/IL17RC dimerization induced by IL-17A (Homo sapiens, UniProt Q16552). The experiment in a line: IL-17RA/IL17RC dimerization assay in response to IL-17A (PathHunter Cytokine Receptor Assay). The experiment is classed as cell-based. The settings on record: IL-17A at EC80; read-out: IC50 in IL-17RA/IL7RC dimerization assay. An outline of the steps:
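PathHunter cells with IL-17RA and IL-17RC tagged for β-galactosidase complementation were preincubated 60 min with peptide (1% vehicle). IL-17A was then added at EC80 for 6–16 h at 37 °C, and chemiluminescence was read. Inhibition is relative to the EC80 and vehicle controls.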

IL-17RA/IL17RC dimerization induced by IL-17A, sequence (Q16552 24-155): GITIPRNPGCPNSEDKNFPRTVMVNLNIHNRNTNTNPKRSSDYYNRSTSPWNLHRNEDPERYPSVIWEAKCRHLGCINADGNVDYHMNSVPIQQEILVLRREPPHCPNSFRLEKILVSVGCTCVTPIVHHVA

For the compound `CC[C@H](C)[C@H](NC(C)=O)C(=O)N[C@@H](Cc1c[nH]cn1)C(=O)N[C@H](C(=O)N[C@H](C(=O)NCC(=O)N1CCC[C@H]1C(=O)N[C@@H](C)C(=O)N[C@@H](CC(=O)O)C(=O)N[C@@H](CC(C)C)C(=O)N[C@@H](Cc1c[nH]c2ccccc12)C(=O)N[C@@H](CC(=O)O)C(=O)N[C@@H](Cc1c[nH]c2ccccc12)C(=O)N[C@H](C(=O)N[C@@H](CC(N)=O)C(=O)N[C@@H](CCCCN)C(N)=O)[C@@H](C)CC)[C@@H](C)O)C(C)C` [SEQ ID NO: 180] (Ac-IHVTGPADLWDWINK-NH2), the IC50 is below 10 µM.

Take `CC[C@H](C)[C@H](NC(C)=O)C(=O)N[C@@H](Cc1c[nH]cn1)C(=O)N[C@H](C(=O)N[C@H](C(=O)N[C@H](C(=O)N1CCC[C@H]1C(=O)N[C@H](C(=O)N[C@@H](CC(=O)O)C(=O)N[C@@H](CC(C)C)C(=O)N[C@@H](Cc1c[nH]c2ccccc12)C(=O)N[C@@H](CC(=O)O)C(=O)N[C@@H](Cc1c[nH]c2ccccc12)C(=O)N[C@H](C(=O)N[C@@H](CC(N)=O)C(=O)N[C@@H](CCCCN)C(N)=O)[C@@H](C)CC)C(C)C)[C@@H](C)CC)[C@@H](C)O)C(C)C` [SEQ ID NO: 195] (Ac-IHVTIPVDLWDWINK-NH2): the IC50 is below 10 µM.

Regarding `CC[C@H](C)[C@H](NC(=O)[C@H](CCC(=O)O)NC(=O)[C@H](CCC(N)=O)NC(=O)[C@@H]1CCCN1C(=O)[C@@H](NC(=O)[C@@H](NC(=O)[C@@H](NC(=O)[C@H](Cc1c[nH]cn1)NC(=O)[C@@H](NC(C)=O)C(C)C)C(C)C)[C@@H](C)O)C(C)C)C(=O)N[C@@H](Cc1ccc(O)cc1)C(=O)N[C@@H](CCC(=O)O)C(=O)N[C@@H](Cc1c[nH]c2ccccc12)C(=O)N[C@H](C(=O)N[C@@H](CCCNC(=N)N)C(=O)N[C@@H](CCCNC(=N)N)C(N)=O)C(C)C` [SEQ ID NO: 236] (Ac-VHVTVPQEIYEWVRR-NH2), the IC50 is below 10 µM.

For the compound `CC[C@H](C)[C@H](NC(=O)[C@H](Cc1c[nH]c2ccccc12)NC(=O)[C@H](CC(=O)O)NC(=O)[C@H](Cc1c[nH]c2ccccc12)NC(=O)[C@H](CC(C)C)NC(=O)[C@H](CC(=O)O)NC(=O)[C@H](C)NC(=O)[C@@H]1CCCN1C(=O)[C@@H](NC(=O)[C@@H](NC(=O)[C@@H](NC(=O)[C@H](Cc1c[nH]cn1)NC(=O)[C@H](CC(C)C)NC(C)=O)C(C)C)[C@@H](C)O)[C@@H](C)CC)C(=O)N[C@@H](CC(N)=O)C(=O)N[C@@H](CCCCN)C(N)=O` [SEQ ID NO: 160] (Ac-LHVTIPADLWDWINK-NH2), the IC50 is below 10 µM.

In the case of `CC[C@H](C)[C@H](NC(=O)[C@H](Cc1c[nH]c2ccccc12)NC(=O)[C@H](CC(=O)O)NC(=O)[C@H](Cc1c[nH]c2ccccc12)NC(=O)[C@H](CC(C)C)NC(=O)[C@H](CC(=O)O)NC(=O)[C@H](C)NC(=O)[C@@H]1CCCN1C(=O)[C@@H](NC(=O)[C@H](Cc1ccc(O)cc1)NC(=O)[C@H](CC(C)C)NC(=O)[C@H](CCCNC(=N)N)NC(=O)[C@@H](NC(C)=O)C(C)C)C(C)C)C(=O)N[C@@H](CC(N)=O)C(=O)N[C@@H](CCCCN)C(N)=O` [SEQ ID NO: 244] (Ac-VRLYVPADLWDWINK-NH2), the IC50 is below 10 µM.

Regarding `CC(=O)N[C@H](C(=O)N[C@@H](Cc1c[nH]cn1)C(=O)N[C@@H](Cc1ccccc1)C(=O)N[C@@H](CCC(N)=O)C(=O)N[C@@H](Cc1ccccc1)C(=O)N1CCC[C@H]1C(=O)N[C@@H](C)C(=O)N[C@@H](CC(=O)O)C(=O)N[C@@H](CC(C)C)C(=O)N[C@@H](Cc1c[nH]c2ccccc12)C(=O)N[C@@H](CC(N)=O)C(=O)N[C@@H](Cc1c[nH]c2ccccc12)C(=O)N[C@H](C(=O)N[C@@H](CCCNC(=N)N)C(=O)N[C@@H](CCCNC(=N)N)C(N)=O)C(C)C)C(C)C` [SEQ ID NO: 133] (Ac-VHFQFPADLWNWVRR-NH2), the IC50 was below 0.5 µM.

In the case of `CC(=O)N[C@H](C(=O)N[C@@H](CCC(=O)O)C(=O)N[C@@H](Cc1ccccc1)C(=O)N[C@@H](CC(N)=O)C(=O)N[C@@H](Cc1ccccc1)C(=O)N1CCC[C@H]1C(=O)N[C@@H](CCC(N)=O)C(=O)N[C@@H](CCC(N)=O)C(=O)N[C@H](C(=O)N[C@@H](Cc1ccc(O)cc1)C(=O)N[C@@H](CCC(=O)O)C(=O)N[C@@H](Cc1c[nH]c2ccccc12)C(=O)N[C@@H](Cc1ccccc1)C(=O)N[C@@H](CC(=O)O)C(=O)N[C@@H](CC(=O)O)C(N)=O)C(C)C)C(C)C` [SEQ ID NO: 255] (Ac-VEFNFPQQVYEWFDD-NH2), the IC50 is below 10 µM.

As to `CC(=O)N[C@H](C(=O)N[C@H](C(=O)N[C@H](C(=O)N[C@@H](Cc1ccc(O)cc1)C(=O)N[C@H](C(=O)N[C@@H](Cc1ccccc1)C(=O)N[C@@H](CC(N)=O)C(=O)N[C@@H](CCC(=O)O)C(=O)N[C@@H](CCC(N)=O)C(=O)N[C@@H](Cc1c[nH]cn1)C(=O)N[C@@H](CCC(N)=O)C(=O)N[C@@H](CCC(=O)O)C(=O)N[C@@H](Cc1ccc(O)cc1)C(=O)N[C@H](C(=O)N[C@@H](CCCNC(=N)N)C(=O)N[C@@H](CCCCN)C(N)=O)C(C)C)C(C)C)C(C)C)C(C)C)[C@@H](C)O` [SEQ ID NO: 257] (Ac-TVVYVFNEQHQEYVRK-NH2), the IC50 is below 10 µM.

Take `CC(=O)N[C@H](C(=O)N[C@@H](Cc1c[nH]cn1)C(=O)N[C@H](C(=O)N[C@H](C(=O)N[C@@H](Cc1ccccc1)C(=O)N1CCC[C@H]1C(=O)N[C@@H](C)C(=O)N[C@@H](CC(=O)O)C(=O)N[C@@H](CC(C)C)C(=O)N[C@@H](Cc1c[nH]c2ccccc12)C(=O)N[C@@H](CCC(=O)O)C(=O)N[C@@H](Cc1c[nH]c2ccccc12)C(=O)N[C@@H](Cc1ccccc1)C(=O)N[C@@H](CCCNC(=N)N)C(=O)N[C@@H](CCCNC(=N)N)C(N)=O)[C@@H](C)O)C(C)C)C(C)C` [SEQ ID NO: 144] (Ac-VHVTFPADLWEWFRR-NH2): the IC50 is below 0.5 µM.

Regarding `CC[C@H](C)[C@H](NC(=O)[C@@H](NC(=O)[C@H](Cc1ccccc1)NC(=O)[C@H](Cc1c[nH]cn1)NC(=O)[C@@H](NC(C)=O)C(C)C)[C@@H](C)O)C(=O)N1CCC[C@H]1C(=O)N[C@@H](CCC(N)=O)C(=O)N[C@@H](CC(=O)O)C(=O)N[C@@H](CC(C)C)C(=O)N[C@@H](Cc1ccc(O)cc1)C(=O)N[C@@H](CCC(=O)O)C(=O)N[C@@H](Cc1c[nH]c2ccccc12)C(=O)N[C@H](C(=O)N[C@@H](CCCNC(=N)N)C(=O)N[C@@H](CCCNC(=N)N)C(N)=O)C(C)C` [SEQ ID NO: 126] (Ac-VHFTIPQDLYEWVRR-NH2), the IC50 is below 0.5 µM.

With `CC[C@H](C)[C@H](NC(=O)[C@H](CCC(=O)O)NC(=O)[C@H](CC(C)C)NC(=O)[C@@H]1CCCN1C(=O)[C@@H](NC(=O)[C@H](CO)NC(=O)CNC(=O)[C@H](CCCNC(=N)N)NC(=O)[C@H](CC(C)C)NC(C)=O)C(C)C)C(=O)N[C@@H](Cc1ccccc1)C(=O)N[C@@H](CCC(=O)O)C(=O)N[C@@H](Cc1c[nH]c2ccccc12)C(=O)N[C@@H](CC(C)C)C(=O)N[C@@H](CCC(N)=O)C(=O)N[C@@H](Cc1c[nH]cn1)C(N)=O` [SEQ ID NO: 253] (Ac-LRGSVPLEIFEWLQH-NH2), the IC50 was below 10 µM.

`CC[C@H](C)[C@H](NC(C)=O)C(=O)N[C@@H](Cc1c[nH]cn1)C(=O)N[C@H](C(=O)N[C@H](C(=O)N[C@H](C(=O)N1CCC[C@H]1C(=O)N[C@@H](C)C(=O)N[C@@H](CCC(N)=O)C(=O)N[C@@H](CC(C)C)C(=O)N[C@@H](Cc1c[nH]c2ccccc12)C(=O)N[C@@H](CC(=O)O)C(=O)N[C@@H](Cc1c[nH]c2ccccc12)C(=O)N[C@H](C(=O)N[C@@H](CC(N)=O)C(=O)N[C@@H](CCCCN)C(N)=O)[C@@H](C)CC)[C@@H](C)CC)[C@@H](C)O)C(C)C` [SEQ ID NO: 199] (Ac-IHVTIPAQLWDWINK-NH2): the IC50 was below 10 µM.

`CC[C@H](C)[C@H](NC(C)=O)C(=O)N[C@@H](Cc1c[nH]cn1)C(=O)N[C@H](C(=O)N[C@H](C(=O)N[C@H](C(=O)N1CCC[C@H]1C(=O)NCC(=O)N[C@@H](CCC(=O)O)C(=O)N[C@H](C(=O)N[C@@H](Cc1ccccc1)C(=O)N[C@@H](CCC(=O)O)C(=O)N[C@@H](Cc1c[nH]c2ccccc12)C(=O)N[C@@H](CC(C)C)C(=O)N[C@@H](CCC(N)=O)C(=O)N[C@@H](Cc1c[nH]cn1)C(N)=O)[C@@H](C)CC)[C@@H](C)CC)[C@@H](C)O)C(C)C` [SEQ ID NO: 250] (Ac-IHVTIPGEIFEWLQH-NH2): the IC50 was below 10 µM.

`CC[C@H](C)[C@H](NC(C)=O)C(=O)N[C@@H](Cc1c[nH]cn1)C(=O)N[C@@H](Cc1c[nH]c2ccccc12)C(=O)N[C@H](C(=O)N[C@H](C(=O)N1CCC[C@H]1C(=O)N[C@@H](C)C(=O)N[C@@H](CC(=O)O)C(=O)N[C@@H](CC(C)C)C(=O)N[C@@H](Cc1c[nH]c2ccccc12)C(=O)N[C@@H](CC(=O)O)C(=O)N[C@@H](Cc1c[nH]c2ccccc12)C(=O)N[C@H](C(=O)N[C@@H](CC(N)=O)C(=O)N[C@@H](CCCCN)C(N)=O)[C@@H](C)CC)[C@@H](C)CC)[C@@H](C)O` [SEQ ID NO: 173] (Ac-IHWTIPADLWDWINK-NH2): the IC50 is below 10 µM.

Take `CC[C@H](C)[C@H](NC(C)=O)C(=O)N[C@@H](Cc1c[nH]cn1)C(=O)N1CCC[C@H]1C(=O)N[C@H](C(=O)N[C@H](C(=O)N1CCC[C@H]1C(=O)N[C@@H](C)C(=O)N[C@@H](CC(=O)O)C(=O)N[C@@H](CC(C)C)C(=O)N[C@@H](Cc1c[nH]c2ccccc12)C(=O)N[C@@H](CC(=O)O)C(=O)N[C@@H](Cc1c[nH]c2ccccc12)C(=O)N[C@H](C(=O)N[C@@H](CC(N)=O)C(=O)N[C@@H](CCCCN)C(N)=O)[C@@H](C)CC)[C@@H](C)CC)[C@@H](C)O` [SEQ ID NO: 170] (Ac-IHPTIPADLWDWINK-NH2): the IC50 was below 10 µM.

Consider `CC[C@H](C)[C@H](NC(C)=O)C(=O)N[C@@H](Cc1c[nH]cn1)C(=O)N[C@H](C(=O)N[C@H](C(=O)N[C@H](C(=O)N1CCC[C@H]1C(=O)N[C@@H](C)C(=O)N[C@@H](CC(=O)O)C(=O)N[C@@H](CC(C)C)C(=O)N[C@@H](Cc1c[nH]c2ccccc12)C(=O)N[C@@H](CC(=O)O)C(=O)N[C@@H](Cc1ccccc1)C(=O)N[C@H](C(=O)N[C@@H](CC(N)=O)C(=O)N[C@@H](CCCCN)C(N)=O)[C@@H](C)CC)[C@@H](C)CC)[C@@H](C)O)C(C)C` [SEQ ID NO: 210] (Ac-IHVTIPADLWDFINK-NH2), for which the IC50 was below 10 µM.
